We go through 7 compounds from patent US20150344540A1, “NOVEL GLP-1 RECEPTOR AGONISTS WITH CHOLESTEROL EFFLUX ACTIVITY” (NOVO NORDISK A/S, priority 2012, published 2015).

Read-outs that look alike come from different tables or passages of the source. Where a SMILES comes first, the peptide text is derived from it. Where no end group is shown, it is not given here. [ ]: non-standard residue; d: D form. Aib = CC(C)(N)C(=O)O

The test system of test [1] is Mouse monocyte/macrophage cell line, RAW 264.7. Briefly: Cholesterol efflux assay (3H-cholesterol, macrophage cell line). The class given is cell-based. To be noted: RAW 264.7, 4 hrs incubation, 0.1% human serum albumin; for 4 h Cholesterol Efflux Emax: ABCA1-mediated efflux.
A further test has as its target human GLP-1 receptor (Homo sapiens, UniProt P43220). Briefly: Functional GLP-1 receptor assay, in vitro potency (CRE luciferase; whole cells). The test is classed as cell-based. To be noted: BHK cells expressing human GLP-1 receptor.
Setting [2] is: GLP1R CRE luc 1% HSA EC50 Mean Value, 1% HSA.
The mark [3] stands for this setting: 0% HSA, read-out: GLP1R CRE luc 0% HSA EC50 Mean Value.

Sequence of human GLP-1 receptor (P43220 24-463): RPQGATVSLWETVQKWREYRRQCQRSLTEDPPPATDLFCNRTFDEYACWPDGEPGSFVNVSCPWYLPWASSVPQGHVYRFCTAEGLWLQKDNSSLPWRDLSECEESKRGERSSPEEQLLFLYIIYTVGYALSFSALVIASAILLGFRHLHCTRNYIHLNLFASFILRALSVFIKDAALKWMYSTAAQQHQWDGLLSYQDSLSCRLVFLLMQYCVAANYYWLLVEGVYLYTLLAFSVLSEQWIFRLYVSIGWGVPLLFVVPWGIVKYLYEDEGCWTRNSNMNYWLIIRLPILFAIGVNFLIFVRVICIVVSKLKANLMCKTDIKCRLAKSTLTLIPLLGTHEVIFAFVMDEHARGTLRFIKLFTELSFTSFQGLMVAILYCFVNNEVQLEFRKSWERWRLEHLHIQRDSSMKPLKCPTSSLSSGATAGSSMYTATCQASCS

For orientation: EC50 means the concentration needed to bring the measured effect to its halfway point. Take `CC[C@H](C)[C@H](NC(=O)[C@H](Cc1ccccc1)NC(=O)[C@H](CCC(=O)O)NC(=O)[C@H](CCCCN)NC(=O)[C@@H](NC(=O)[C@H](CCCNC(=N)N)NC(=O)[C@H](CCC(=O)O)NC(=O)CNC(=O)[C@H](CCC(=O)O)NC(=O)[C@H](CC(C)C)NC(=O)[C@H](Cc1ccc(O)cc1)NC(=O)[C@H](CO)NC(=O)[C@H](CO)NC(=O)[C@@H](NC(=O)[C@H](CC(=O)O)NC(=O)[C@H](CO)NC(=O)[C@@H](NC(=O)[C@H](Cc1ccccc1)NC(=O)[C@@H](NC(=O)CNC(=O)[C@H](CCC(=O)O)NC(=O)C(C)(C)NC(=O)[C@@H](N)Cc1c[nH]cn1)[C@@H](C)O)[C@@H](C)O)C(C)C)C(C)C)C(=O)N[C@@H](C)C(=O)N[C@@H](Cc1c[nH]c2ccccc12)C(=O)N[C@@H](CC(C)C)C(=O)N[C@H](C(=O)N[C@@H](CCC(=O)O)C(=O)N[C@@H](CCCCN)C(=O)NC(C)(C)C(=O)N[C@@H](CCCCN)C(=O)N[C@@H](CCC(=O)O)C(=O)N[C@@H](Cc1ccccc1)C(=O)N[C@@H](CC(C)C)C(N)=O)C(C)C` [Compound 53, [Aib8,Glu23,Arg24,Val25,Glu34,Lys35,Aib36,Lys37]-GLP-1-(7-37)-peptidyl-Glu-Phe-Leu amide] (H-H[Aib]EGTFTSDVSSYLEGERVKEFIAWLVEK[Aib]KEFL-NH2): the “4 h Cholesterol Efflux Emax” value in test [1] came to 109%. In addition, it took 0.273 nM to reach a half-maximal effect on human GLP-1 receptor (setting [2]) (EC50).
Regarding “H-HAEGTFTSDVSSYLEGQAAKEFIAWLVEKVKEFLEK-OH [Compound 124, [Glu34,Lys35,Val36,Lys37]-GLP-1-(7-37)-peptidyl-Glu-Phe-Leu-Glu-Lys]”, the “4 h Cholesterol Efflux Emax” value in test [1] is reported as 146%. The 50% effective concentration (EC50) on human GLP-1 receptor (setting [3]) stood at 0.03 nM; on human GLP-1 receptor (setting [2]), 0.011 nM.
For `CC[C@H](C)[C@H](NC(=O)[C@H](Cc1ccccc1)NC(=O)[C@H](CCC(=O)O)NC(=O)[C@H](CCCCN)NC(=O)[C@@H](NC(=O)[C@H](C)NC(=O)[C@H](CCC(=O)O)NC(=O)[C@H](CCC(=O)O)NC(=O)[C@H](CCC(=O)O)NC(=O)[C@H](CC(C)C)NC(=O)[C@H](Cc1ccc(O)cc1)NC(=O)[C@H](CO)NC(=O)[C@H](CO)NC(=O)[C@@H](NC(=O)[C@H](CC(=O)O)NC(=O)[C@H](CO)NC(=O)[C@@H](NC(=O)[C@H](Cc1ccccc1)NC(=O)[C@@H](NC(=O)CNC(=O)[C@H](CCC(=O)O)NC(=O)C(C)(C)NC(=O)[C@@H](N)Cc1c[nH]cn1)[C@@H](C)O)[C@@H](C)O)C(C)C)C(C)C)C(=O)N[C@@H](C)C(=O)N[C@@H](Cc1c[nH]c2ccccc12)C(=O)N[C@@H](CC(C)C)C(=O)N[C@H](C(=O)N[C@@H](CCC(=O)O)C(=O)N[C@@H](CCCCN)C(=O)N[C@H](C(=O)N[C@@H](CCCCN)C(=O)N[C@@H](CCC(=O)O)C(=O)N[C@@H](Cc1ccccc1)C(N)=O)C(C)C)C(C)C` [Compound 134, [Aib8,Glu22,Glu23,Val25,Glu34,Lys35,Val36,Lys37]-GLP-1-(7-37)-peptidyl-Glu-Phe amide] (H-H[Aib]EGTFTSDVSSYLEEEAVKEFIAWLVEKVKEF-NH2), the “4 h Cholesterol Efflux Emax” value in test [1] was determined as 134%. Besides, the figures for the EC50 at human GLP-1 receptor (setting [3]) and on human GLP-1 receptor (setting [2]) were 0.029 nM and 0.012 nM, respectively.
As for `CC(C)C[C@H](NC(=O)[C@H](Cc1ccccc1)NC(=O)[C@H](CCC(=O)O)NC(=O)[C@H](CCCCN)NC(=O)C(C)(C)NC(=O)[C@H](CCCCN)NC(=O)[C@H](CCC(=O)O)NC(=O)[C@H](CC(C)C)NC(=O)[C@H](CC(C)C)NC(=O)[C@H](Cc1c[nH]c2ccccc12)NC(=O)[C@H](CCC(N)=O)NC(=O)[C@@H](NC(=O)[C@H](Cc1ccccc1)NC(=O)[C@H](CCC(=O)O)NC(=O)[C@H](CCCNC(=N)N)NC(=O)[C@@H](NC(=O)[C@H](C)NC(=O)[C@H](CCC(=O)O)NC(=O)CNC(=O)[C@H](CCC(=O)O)NC(=O)[C@H](CC(C)C)NC(=O)[C@H](Cc1ccc(O)cc1)NC(=O)[C@H](CO)NC(=O)[C@H](CO)NC(=O)[C@@H](NC(=O)[C@H](CC(=O)O)NC(=O)[C@H](CO)NC(=O)[C@@H](NC(=O)[C@H](Cc1ccccc1)NC(=O)[C@@H](NC(=O)CNC(=O)[C@H](CCC(=O)O)NC(=O)C(C)(C)NC(=O)[C@@H](N)Cc1c[nH]cn1)[C@@H](C)O)[C@@H](C)O)C(C)C)C(C)C)C(C)C)C(N)=O` [Compound 80, [Aib8,Glu23,Val25,Arq26,Val29,Gln30,Leu33,Glu34,Lys35,Aib36,Lys37]-GLP-1-(7-37)-peptidyl-Glu-Phe-Leu amide] (H-H[Aib]EGTFTSDVSSYLEGEAVREFVQWLLEK[Aib]KEFL-NH2), the “4 h Cholesterol Efflux Emax” value in test [1] is given as 108%. The same compound came in with an EC50 at human GLP-1 receptor (setting [2]) of 0.029 nM.
Turning to “HAEGTFTSDLSKQMEEEAVREFIEWLKNKVLEFL-NH2 [Compound 69, [Ala2,Glu21,Lys29,Val30,Leu31,Glu32,Phe33,Leu34]-Exendin-4-(1-34)-peptide amide]”, the EC50 turned out to be 410 nM in test [1] (read-out: 4 h Cholesterol Efflux EC50, ABCA1-mediated efflux (CPT-cAMP induced minus non-induced)); 0.031 nM on human GLP-1 receptor (setting [3]); 0.02 nM at human GLP-1 receptor (setting [2]).
Take “H-HAEGTFTSDVSSYLEGEAVKEFIAWLVEKVKEFLEK-OH [Compound 123, [Glu23,Val25,Glu34,Lys35,Val36,Lys37]-GLP-1-(7-37)-peptidyl-Glu-Phe-Leu-Glu-Lys]”: the “4 h Cholesterol Efflux Emax” value in test [1] was 111%. This compound registered an EC50 at human GLP-1 receptor (setting [2]) of 0.031 nM.
`CC[C@H](C)[C@H](NC(=O)[C@H](Cc1ccccc1)NC(=O)[C@H](CCC(=O)O)NC(=O)[C@H](CCCCN)NC(=O)[C@@H](NC(=O)[C@H](C)NC(=O)[C@H](CCC(=O)O)NC(=O)CNC(=O)[C@H](CCC(=O)O)NC(=O)[C@H](CC(C)C)NC(=O)[C@H](Cc1ccc(O)cc1)NC(=O)[C@H](CO)NC(=O)[C@H](CO)NC(=O)[C@@H](NC(=O)[C@H](CC(=O)O)NC(=O)[C@H](CO)NC(=O)[C@@H](NC(=O)[C@H](Cc1ccccc1)NC(=O)[C@@H](NC(=O)CNC(=O)[C@H](CCC(=O)O)NC(=O)C(C)(C)NC(=O)[C@@H](N)Cc1c[nH]cn1)[C@@H](C)O)[C@@H](C)O)C(C)C)C(C)C)C(=O)N[C@@H](C)C(=O)N[C@@H](Cc1c[nH]c2ccccc12)C(=O)N[C@@H](CC(C)C)C(=O)N[C@H](C(=O)N[C@@H](CCC(=O)O)C(=O)N[C@@H](CCCCN)C(=O)N[C@H](C(=O)N[C@@H](CCCCN)C(=O)N[C@@H](CCC(=O)O)C(=O)N[C@@H](CCC(=O)O)C(=O)N[C@@H](CC(C)C)C(N)=O)C(C)C)C(C)C` [Compound 116, [Aib8,Glu23,Val25,Glu34,Lys35,Val36,Lys37]-GLP-1-(7-37)-peptidyl-Glu-Glu-Leu amide] (H-H[Aib]EGTFTSDVSSYLEGEAVKEFIAWLVEKVKEEL-NH2): in test [1], the “4 h Cholesterol Efflux Emax” value is 131%. Further, the EC50 on human GLP-1 receptor (setting [3]) came to 0.025 nM; on human GLP-1 receptor (setting [2]), 0.016 nM.
